Test results reported in publication PMC3492849 (The Febs Journal, 2012).

What follows are compounds tested against PKD1L3/PKD2L1 (Mus musculus, UniProt A2A259+Q2EG98) (assay: Fura-2 Ca2+ imaging, neutralization method).
Assay type: cell-based

Sequence of PKD1L3/PKD2L1 (A2A259 whole entry): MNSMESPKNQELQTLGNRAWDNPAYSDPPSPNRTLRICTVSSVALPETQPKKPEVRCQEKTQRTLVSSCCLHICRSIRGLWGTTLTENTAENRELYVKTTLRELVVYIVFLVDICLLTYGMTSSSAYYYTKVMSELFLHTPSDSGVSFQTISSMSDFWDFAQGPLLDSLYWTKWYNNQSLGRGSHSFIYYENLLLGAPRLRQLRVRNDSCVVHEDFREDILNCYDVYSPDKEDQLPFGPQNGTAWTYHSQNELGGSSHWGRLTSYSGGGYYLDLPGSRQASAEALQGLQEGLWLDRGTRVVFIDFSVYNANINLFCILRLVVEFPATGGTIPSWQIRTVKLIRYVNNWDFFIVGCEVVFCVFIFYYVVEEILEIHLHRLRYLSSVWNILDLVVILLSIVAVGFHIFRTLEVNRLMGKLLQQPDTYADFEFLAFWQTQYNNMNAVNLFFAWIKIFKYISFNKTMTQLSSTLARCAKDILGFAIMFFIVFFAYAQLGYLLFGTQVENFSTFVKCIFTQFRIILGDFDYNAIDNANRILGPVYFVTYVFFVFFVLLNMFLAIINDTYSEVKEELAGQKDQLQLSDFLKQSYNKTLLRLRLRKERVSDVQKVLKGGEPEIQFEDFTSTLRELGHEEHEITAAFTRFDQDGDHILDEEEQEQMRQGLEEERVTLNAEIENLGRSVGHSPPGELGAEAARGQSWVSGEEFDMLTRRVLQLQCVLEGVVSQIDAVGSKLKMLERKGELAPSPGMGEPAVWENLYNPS
Sequence of PKD1L3/PKD2L1 (Q2EG98 21-2151): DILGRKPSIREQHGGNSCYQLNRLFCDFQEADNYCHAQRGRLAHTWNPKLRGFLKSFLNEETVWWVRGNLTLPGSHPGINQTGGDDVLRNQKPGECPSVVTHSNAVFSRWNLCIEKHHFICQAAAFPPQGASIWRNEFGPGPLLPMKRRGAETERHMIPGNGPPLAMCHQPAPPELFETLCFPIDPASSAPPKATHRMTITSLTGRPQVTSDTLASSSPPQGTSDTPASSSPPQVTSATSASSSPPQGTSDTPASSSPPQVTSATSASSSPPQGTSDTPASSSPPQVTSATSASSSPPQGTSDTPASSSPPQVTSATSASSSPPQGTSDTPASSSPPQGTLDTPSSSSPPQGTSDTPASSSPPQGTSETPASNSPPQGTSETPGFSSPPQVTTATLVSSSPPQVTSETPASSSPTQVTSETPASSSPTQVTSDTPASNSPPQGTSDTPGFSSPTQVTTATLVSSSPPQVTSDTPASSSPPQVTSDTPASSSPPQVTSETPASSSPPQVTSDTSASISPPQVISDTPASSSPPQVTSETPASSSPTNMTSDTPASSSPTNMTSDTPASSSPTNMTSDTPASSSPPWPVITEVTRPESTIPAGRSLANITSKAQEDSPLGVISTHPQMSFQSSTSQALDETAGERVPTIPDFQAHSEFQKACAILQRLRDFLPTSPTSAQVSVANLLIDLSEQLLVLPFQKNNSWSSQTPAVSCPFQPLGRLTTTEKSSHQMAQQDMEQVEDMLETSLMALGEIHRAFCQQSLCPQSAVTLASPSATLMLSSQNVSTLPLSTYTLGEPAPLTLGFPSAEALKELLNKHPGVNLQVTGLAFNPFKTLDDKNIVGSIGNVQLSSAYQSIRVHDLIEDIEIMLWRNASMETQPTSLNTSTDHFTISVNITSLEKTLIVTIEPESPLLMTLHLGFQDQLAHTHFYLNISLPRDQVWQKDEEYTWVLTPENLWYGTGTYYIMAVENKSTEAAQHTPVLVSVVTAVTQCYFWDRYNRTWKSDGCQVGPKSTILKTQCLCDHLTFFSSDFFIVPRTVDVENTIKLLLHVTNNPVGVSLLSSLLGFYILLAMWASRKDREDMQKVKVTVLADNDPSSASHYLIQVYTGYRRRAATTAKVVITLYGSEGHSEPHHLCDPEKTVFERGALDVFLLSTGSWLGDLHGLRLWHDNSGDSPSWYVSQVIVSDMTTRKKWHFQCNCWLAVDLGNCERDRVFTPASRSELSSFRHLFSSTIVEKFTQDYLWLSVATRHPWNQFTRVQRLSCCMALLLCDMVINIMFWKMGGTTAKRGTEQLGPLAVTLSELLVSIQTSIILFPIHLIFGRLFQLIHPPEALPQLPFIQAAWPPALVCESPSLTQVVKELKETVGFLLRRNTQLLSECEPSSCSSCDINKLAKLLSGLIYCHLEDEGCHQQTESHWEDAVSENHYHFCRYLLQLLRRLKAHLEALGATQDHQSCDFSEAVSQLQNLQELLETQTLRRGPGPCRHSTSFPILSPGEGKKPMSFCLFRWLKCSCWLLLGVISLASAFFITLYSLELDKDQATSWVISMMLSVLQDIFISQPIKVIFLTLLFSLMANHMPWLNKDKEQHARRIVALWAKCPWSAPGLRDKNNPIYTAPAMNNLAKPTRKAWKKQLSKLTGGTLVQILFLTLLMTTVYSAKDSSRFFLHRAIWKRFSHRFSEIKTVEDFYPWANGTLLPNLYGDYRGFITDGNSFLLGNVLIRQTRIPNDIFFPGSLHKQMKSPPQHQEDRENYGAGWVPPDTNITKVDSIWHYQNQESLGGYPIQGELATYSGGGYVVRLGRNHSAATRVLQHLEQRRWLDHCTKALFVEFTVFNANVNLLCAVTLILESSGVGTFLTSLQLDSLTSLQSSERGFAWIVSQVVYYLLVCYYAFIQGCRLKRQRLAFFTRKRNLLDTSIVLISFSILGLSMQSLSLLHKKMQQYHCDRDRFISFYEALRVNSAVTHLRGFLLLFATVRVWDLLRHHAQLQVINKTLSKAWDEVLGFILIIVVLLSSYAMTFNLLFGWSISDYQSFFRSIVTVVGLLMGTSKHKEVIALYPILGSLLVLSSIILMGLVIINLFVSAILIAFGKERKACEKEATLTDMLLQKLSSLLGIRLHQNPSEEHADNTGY

IC50	SMILES
85.9 ± 34.7 µM	CCCCC[C@H](O)CC(=O)CCc1ccc(O)c(OC)c1 [6-gingerol]
48.1 ± 10.8 µM	COc1ccc(CCCOC(Cn2ccnc2)c2ccc(OC)cc2)cc1 (stereo not shown) [SKF96365]
32.5 ± 10.2 µM	COc1cc(CNC(=O)CCCC/C=C/C(C)C)ccc1O [capsaicin]
55 ± 14.2 µM	COc1cc(CNC(=O)CCCCCCC(C)C)ccc1O [dihydrocapsaicin]
